Our source for the IC50 values is PMC11096237, “Utilizing a structure-based virtual screening approach to discover potential LSD1 inhibitors” (Journal of Cancer Research and Clinical Oncology, 2024).

The target in the test is T1, LSD1 (Homo sapiens, UniProt O60341).
T1 construct: gene KDM1A
As to the kind of experiment: Amplex Red/HRP-coupled fluorescence demethylase assay with purified recombinant LSD1 and H3K4me2. The class given is biochemical. The source says:
Amplex Red/HRP-coupled fluorescence demethylase assay with purified recombinant LSD1 and H3K4me2 on LSD1 | […]

On to `O=C(CNC(=O)Cc1ccccc1)NCC(=O)OCC(=O)c1ccc(OCc2ccccc2)cc1` [ZINC10039815], for which the IC50 (commonly the midpoint of a concentration-inhibition curve) is 99 nM.
